Data reported in US5707615A, “Method of treating HIV infections with anti-viral formulations” (Merrell Pharmaceuticals Inc., priority 1997, dated 1998).

Key:
HIV-I, GB8 = test: Ability to prevent syncytia formation and expression of P24 viral core antigen using JM cells and GB8 virus strain (Example I); type: cell-based; settings: for P24 % CONTROL: 4320 min; for SYNCYTIA: after 3 days
Protocol: The virus was first incubated with an oligomer for 15 minutes and then the cells were added. After 2 hours adsorption, the virus innoculum was removed and the cells were washed three times to remove traces of input virus. Antiviral activity was determined after 3 days incubation by plotting the mean number of syncytia found in quadruple cultures against log10 concentration of anionic polymer or of other test compounds. The potency of an oligomer was also measured by assaying viral core antigen (P24 test-Abbott) in the supernatant fluid. Heparin, dextran sulfate, rs CD4, ATZ and/or ddC data, when included in any of the following Tables, are provided as positive controls.

HIV strain RF = test: Ability to prevent virus-induced cell death using MT4 cells and strain RF (Example III); type: cell-based; settings: MT4 cells, 7 days, MTT, 10080 min
Protocol: (§1) Various oligomers were dissolved in RPMI and were then assayed for anti-HIV activity by making doubling dilutions of the solutions across a 96 well microtitre plate. To each well were then added 5×10^4 cells and 100 TCID50 of virus and the plates incubated at 37° C. for 7 days. MTT was added to each well and the plates incubated for a further 2 hours. The blue formazan crystals were dissolved using acidic isopropanol, and the absorbance measured at 540 nm.

MT4 cells = test: Toxicity to MT4 cells (TD50, Table IV, MTT); type: cell-based; settings: MT4 cells, 7 days, MTT
Protocol: as §1

HIV-I (GB8) = test: Pretreatment of JM cells and block of HIV-I (GB8) infection (Example IV); settings: pretreated overnight at 20 μg/mL
GB8 virus in JM cells = test: Virus infection of JM cells with GB8 in the presence of test compounds: syncytia and P24 (Example II); settings: Table II; for SYNCYTIA % / P24 %: % of control; for SYNCYTIA %: 2880 min; for P24 %: 5760 min

With “poly{imino[2,2'-disulfo(1,1'-biphenyl)-4,4'-diyl]iminocarbonyl}, alpha-{[(4-methylphenyl)amino]carbonyl}-omega[(4-methylphenyl)amino]- [Example 1B]” the P24 (HIV-I, GB8; 0.6 μg/mL) was 32820 pg/mL, the “P24 % CONTROL” value (HIV-I, GB8; 0.6 μg/mL) was 0.1% and the P24 (HIV-I, GB8; 1.25 μg/mL) was 35890 pg/mL. For the same substance, the “P24 % CONTROL” value (HIV-I, GB8; 1.25 μg/mL) was less than 0.1%, the P24 (HIV-I, GB8; 2.5 μg/mL) was 365 pg/mL and the “P24 % CONTROL” value (HIV-I, GB8; 2.5 μg/mL) was less than 0.1%. For the same substance, the SYNCYTIA (HIV-I, GB8; 2.5 μg/mL) was 0, the P24 (HIV-I, GB8; 5.0 μg/mL) was 465 pg/mL and the “P24 % CONTROL” value (HIV-I, GB8; 5.0 μg/mL) was less than 0.1%. It also gave an SYNCYTIA (HIV-I, GB8; 5.0 μg/mL) of 0, an ED50 (HIV strain RF) of 2.2 µg/mL and a TD50 (MT4 cells) greater than 100 µg/mL. For the same substance, the P24 (HIV-I (GB8)) was 2790 pg/mL, the “MEAN SYNCYTIA” value (HIV-I (GB8); 2 days) was 52 and the P24 % (HIV-I (GB8); % of control, 2880 min) was 10%. For the same substance, the SYNCYTIA % (HIV-I (GB8); % of control, 2880 min) was 44%, the “SYNCYTIA (2 DAYS) MEAN” value (GB8 virus in JM cells; 0.01 μg/mL) was 47 and the SYNCYTIA % (GB8 virus in JM cells; 0.01 μg/mL) was 112%. The P24 (GB8 virus in JM cells; 0.03 μg/mL) was 4.1 × 10^5 units/mL, the “SYNCYTIA (2 DAYS) MEAN” value (GB8 virus in JM cells; 0.03 μg/mL) was 42 and the SYNCYTIA % (GB8 virus in JM cells; 0.03 μg/mL) was 100%. The P24 % (GB8 virus in JM cells; 0.03 μg/mL) was 100%, the P24 (GB8 virus in JM cells; 0.1 μg/mL) was 4.4 × 10^5 units/mL and the “SYNCYTIA (2 DAYS) MEAN” value (GB8 virus in JM cells; 0.1 μg/mL) was 25. The SYNCYTIA % (GB8 virus in JM cells; 0.1 μg/mL) was 58%, the P24 % (GB8 virus in JM cells; 0.1 μg/mL) was 100% and the P24 (GB8 virus in JM cells; 0.3 μg/mL) was 3.8 × 10^4 units/mL. The “SYNCYTIA (2 DAYS) MEAN” value (GB8 virus in JM cells; 0.3 μg/mL) was 1, the SYNCYTIA % (GB8 virus in JM cells; 0.3 μg/mL) was 2% and the P24 % (GB8 virus in JM cells; 0.3 μg/mL) was 11%. The P24 (GB8 virus in JM cells; 1 μg/mL) was 1.6 × 10^3 units/mL, the “SYNCYTIA (2 DAYS) MEAN” value (GB8 virus in JM cells; 1 μg/mL) was 0 and the SYNCYTIA % (GB8 virus in JM cells; 1 μg/mL) was 0%. The P24 % (GB8 virus in JM cells; 1 μg/mL) was 0.4%, the “SYNCYTIA (2 DAYS) MEAN” value (GB8 virus in JM cells; 3 μg/mL) was 0 and the SYNCYTIA % (GB8 virus in JM cells; 3 μg/mL) was 0%. The “SYNCYTIA (2 DAYS) MEAN” value (GB8 virus in JM cells; 10 μg/mL) was 0 and the SYNCYTIA % (GB8 virus in JM cells; 10 μg/mL) was 0%.
